{
  "source": "patent US20260007679A1",
  "about": "“METHODS OF TREATING CANCER USING 3-(4-((4-(MORPHOLINOMETHYL)BENZYL)OXY)-1-OXOISOINDOLIN-2-YL)PIPERIDINE-2,6-DIONE” (Celgene Corporation, priority 2012, published 2026)",
  "key": {"[1]": {"tested_on": "NCI-H929 cells (Control, Revlimid-sensitive, parental)", "assay": "Proliferation and viability by 7-AAD staining", "assay_type": "cell-based", "settings": "Homo sapiens, NCI-H929, 120 h; Control / parental H929; 5 days; read-out: IC50, proliferation"}, "OCI-Ly19": {"tested_on": "OCI-Ly19", "assay": "5 day 3H thymidine incorporation", "assay_type": "cell-based", "settings": "Homo sapiens, GCB subtype", "method": "(§1) Cells were treated with the tested compound for 5 days at 37° C.; proliferation of cells was determined using ^3H-thymidine incorporation method."}, "WSU-DLCL2": {"tested_on": "WSU-DLCL2", "assay": "5 day 3H thymidine incorporation", "assay_type": "cell-based", "settings": "Homo sapiens, WSUDLCL2; GCB subtype", "method": "as §1"}, "Farage DLBCL cells": {"tested_on": "Farage DLBCL cells", "assay": "3 day 3H-thymidine incorporation assay", "assay_type": "cell-based"}, "[2]": {"tested_on": "lenalidomide resistant H929 subclones", "assay": "Proliferation and viability by 7-AAD staining", "assay_type": "cell-based", "method": "The Revlimid-resistant or -sensitive cell lines were treated with test compounds for 5 days, and then cell proliferation and viability were assessed by 7-aminoactinomycin D (7-AAD) staining.\n(§2) CRBN ubiquitination was measured in HEK293T cells, which were transfected with an amino-terminal His-biotin-tagged CRBN construct, then preincubated with compounds for one hour followed by treatment with the MG132 proteasome inhibitor (to arrest degradation of ubiquitinated proteins). Cells were lysed and processed to measure CRBN ubiquitination by SDS-PAGE and immunoblot analysis using an anti-ubiquitin antibody. Cell proliferation studies were conducted in lenalidomide-sensitive and refractory multiple myeloma cells. […] T-cell costimulation was measured in purified primary human T cells stimulated using immobilized anti-CD3 antibody in cell culture for 2 days, and cytokine secretion was measured by ELISA."}, "[3]": {"tested_on": "normal donor peripheral blood mononuclear cells", "assay": "Immunoglobulin M and G production", "assay_type": "cell-based", "settings": "Homo sapiens, PBMC", "method": "Immunoglobulin M and G (“IgG and IgM”) production was measured from normal donor peripheral blood mononuclear cells by culturing in the presence of the B cell differentiation factors recombinant human IL-2 (20U/mL), IL-10 (50 ng/mL), IL-15 (10 ng/mL), His-tagged CD40 Ligand (50 ng/mL), polyHistidine mouse IgG1 antibody (5 μg/mL), and ODN 2006-Human TLR9 ligand (10 μg/mL) for 4 days, followed by IL-2, IL-10, IL-15, and IL-6 (50 ng/mL) for an additional 3 days. IgM and IgG were measured by ELISA."}, "[4]": {"tested_on": "purified primary human T cells stimulated using immobilized anti-CD3 antibody", "assay": "T-cell costimulation, IL-2 production", "assay_type": "cell-based", "method": "as §2"}, "[5]": {"biological_target": "T1, endogeneous human CRBN (U266 extract) (Homo sapiens, UniProt Q96SW2)", "T1 construct": "endogenous in cells; host or cells: U266 human multiple myeloma cells (NP-40 lysate)", "assay": "Thalidomide affinity bead competition assay", "assay_type": "binding", "method": "Affinity beads coupled to a thalidomide acid analog were incubated with the U266 extracts and, after extensive washing of the beads, the bound proteins were eluted. CRBN binding to the thalidomide-coupled affinity beads was determined by quantitative CRBN immunoblot determination."}, "Rec-1 MCL cells": {"tested_on": "Rec-1 MCL cells", "assay": "3 day 3H-thymidine incorporation assay", "assay_type": "cell-based"}, "Pharmacokinetics in rat": {"assay": "Pharmacokinetics in rat", "assay_type": "in vivo", "settings": "SD Rat, 67% S-enantiomer, 33% R-enantiomer"}, "[6]": {"tested_on": "NK cell mediated ADCC against Rituximab coated lymphoma cells", "assay": "NK cell mediated ADCC assay (LDH release)", "assay_type": "cell-based, human", "method": "NK cells from healthy donors were isolated from buffy coat blood by negative selection using the RosetteSep NK cell enrichment cocktail (Stem Cell Technologies, Vancouver, BC) prior to Ficoll-Hypaque (Fisher Scientific Co LLC, PA) density gradient centrifugation following the manufacturers' instructions. CD56+NK cells were isolated to ˜85% purity, as determined by flow cytometry (BD Biosciences, CA).\nADCC Assay: Purified NK cells (5×104) were seeded in 96-well U-bottom plates in 100 μL of RPMI-1640 medium without phenol (Invitrogen)+2% human AB+serum (Gemini Bio Products, CA) and treated with 10 ng/mL rhIL-2 and rituximab (5 μg/mL) plus different concentrations of test compounds at 0.01 to 10 μM for 48 hours. Various lymphoma cell lines (GCB-DLBCL: WSU-DLCL2 and Farage; Follicular lymphoma: DoHH2; ABC-DLBCL: Riva; Burkitt's lymphoma [BL]: Raji) were treated with 5 µg/mL rituximab for 30 minutes at 37° C. Unbound rituximab was washed off, target cells (5×103/100 μL/well) were added to the pretreated effector cells (NK cells) at a 10:1 ratio, and the two were co-incubated for 4 hours at 37° C. Control conditions consisted of NK cells plus tumor cells treated with (1) medium alone, (2) rituximab only, or (3) IL-2 alone. Using an aliquot of supernatant (50 μL), NK cell cytotoxicity against tumor cells was analyzed using a standard lactate dehydrogenease (LDH) release assay to measure ADCC (CytoTox 96 Non-Radioactive Cytoxicity Assay, Promega, WI). Spontaneous release by target cells alone was <15% of the maximum release, as determined with target cells lysed in 1% Triton X-100. The experimental release was corrected by subtraction of the spontaneous release of effector cells at the corresponding dilution. The percentage of specific lysis was calculated according to the formula: Percentage specific lysis=100×(experimental−effector spontaneous−target spontaneous)/(target maximum−target spontaneous).\nNK cell-mediated specific lysis was calculated with the following formula: Percentage specific lysis=[(experimental release−spontaneous release)/(maximum release−spontaneous release)]×100. Results were analyzed using GraphPad Prism v5.0 software. Data are presented as the percentage cytotoxicity relative to DMSO-treated cells."}, "[7]": {"tested_on": "WSU-DLCL2 DLBCL xenograft", "assay": "WSU-DLCL2 DLBCL xenograft model"}, "NFκB p65 and p50": {"tested_on": "NFκB p65 and p50", "assay": "NFκB activity in DLBCL cells (Active Motif transcription factor assay)", "assay_type": "cell-based", "settings": "1 μM and 10 μM; 2 days; ABC-DLBCL lines such as TMD8 and OCI-Ly10", "method": "DLBCL cells were treated with test compound or an IKK1/2 dual inhibitor (used as a positive inhibitor control) for 2 days. NFκB activity was examined with Active Motif transcription factor assay using nuclear extracts from cells following treatment."}, "[8]": {"settings": "Sprague-Dawley, plasma, 10 mg/kg, 10 mpk po"}},
  "note": "Several values for one entry are separate records, joined by “and”; a condition that tells them apart may be missing. Equal values may be shown once. Read-outs that look alike come from different tables or passages of the source.",
  "data": [
    {"smiles": "O=C1CC[C@H](N2Cc3c(OCc4ccc(CN5CCOCC5)cc4)cccc3C2=O)C(=O)N1", "note": "[Compound I-S, (S)-3-(4-((4-(morpholinomethyl)benzyl)oxy)-1-oxoisoindolin-2-yl)piperidine-2,6-dione]", "values": [
      {"measurement": "IC50", "setting": "[1]", "value": 0.01, "unit": "µM"},
      {"measurement": "IC50", "setting": "OCI-Ly19", "value": "> 10", "unit": "µM"},
      {"measurement": "IC50", "setting": "WSU-DLCL2", "value": 0.24, "unit": "µM"},
      {"measurement": "IC50", "setting": "Farage DLBCL cells; Farage, 72 h, 3 day, read-out: anti-proliferative IC50", "value": 0.28, "unit": "µM"},
      {"measurement": "combination effect, fractional product method", "setting": "Farage DLBCL cells; combined with Rituxan", "value": "additive to synergistic manner"},
      {"measurement": "activity against Revlimid-resistant cell lines", "setting": "[2]", "value": "active"},
      {"measurement": "IC50", "setting": "[2]; Homo sapiens, NCI-H929, 120 h, read-out: IC50 for inhibition of proliferation", "value": "0.51 to 1.58", "unit": "µM"},
      {"measurement": "IC50", "setting": "[3]; read-out: IgG production IC50", "value": 0.0021, "unit": "µM"},
      {"measurement": "IC50", "setting": "[3]; read-out: IgM production IC50", "value": 0.00035, "unit": "µM"},
      {"measurement": "EC50", "setting": "[4]", "value": "~0.00029", "unit": "µM"},
      {"measurement": "binding to CRBN", "setting": "[5]", "value": "binds to endogeneous human CRBN"},
      {"measurement": "IC50", "setting": "Rec-1 MCL cells; Homo sapiens, Rec1, 72 h, 3 day, read-out: anti-proliferative IC50", "value": 0.027, "unit": "µM"},
      {"measurement": "combination effect, fractional product method", "setting": "Rec-1 MCL cells; combined with Rituxan", "value": "additive manner"},
      {"measurement": "F", "setting": "Pharmacokinetics in rat; 10 mpk po", "value": 52, "unit": "%"},
      {"measurement": "AUC", "setting": "Pharmacokinetics in rat; Sprague-Dawley, plasma, 2 mg/kg, 2 mpk iv", "value": "890 ng·h/mL and 2 µM·h"},
      {"measurement": "clearance", "setting": "Pharmacokinetics in rat; Sprague-Dawley, plasma, 2 mg/kg, 2 mpk iv, read-out: CLp", "value": 37, "unit": "mL/min/kg"},
      {"measurement": "Vd", "setting": "Pharmacokinetics in rat; Sprague-Dawley, plasma, 2 mg/kg, 2 mpk iv, read-out: Vss", "value": 2.9, "unit": "L/kg"},
      {"measurement": "AUC", "setting": "Pharmacokinetics in rat; [8]", "value": "2400 ng·h/mL and 5.2 µM·h"},
      {"measurement": "Cmax", "setting": "Pharmacokinetics in rat; [8]", "value": "1500 ng/mL and 3.3 µM"}
    ]},
    {"smiles": "O=C1CCC(N2Cc3c(OCc4ccc(CN5CCOCC5)cc4)cccc3C2=O)C(=O)N1", "note": "(racemic) [Compound I, 3-(4-((4-(morpholinomethyl)benzyl)oxy)-1-oxoisoindolin-2-yl)piperidine-2,6-dione]", "values": [
      {"measurement": "concentration of peak ADCC activity", "setting": "[6]; Farage cells", "value": 1, "unit": "µM"},
      {"measurement": "concentration of peak ADCC activity", "setting": "[6]; Raji cells", "value": 0.1, "unit": "µM"},
      {"measurement": "rituximab-mediated ADCC, all cell lines", "setting": "[6]; WSU-DLCL2, Farage, DoHH2, Riva, Raji", "value": "more active than compounds I-S and I-R in all the cell lines tested except in Riva cells"},
      {"measurement": "concentration of peak ADCC activity", "setting": "[6]; WSU-DLCL2 cells", "value": 0.1, "unit": "µM"},
      {"measurement": "concentration of peak ADCC activity", "setting": "[6]; other cell lines (than WSU-DLCL2 and Raji)", "value": 1, "unit": "µM"},
      {"measurement": "Tumor Free Survival on Day 44", "setting": "[7]; 3 mg/kg in combination with Rituxan 2 mg/kg iv qw", "value": "6/10"},
      {"measurement": "Tumor Free Survival on Day 44", "setting": "[7]; 30 mg/kg in combination with Rituxan 2 mg/kg iv qw", "value": "6/10"},
      {"measurement": "tumor response in combination with Rituxan", "setting": "[7]; all combination treatment groups, complete regression = tumor volume <25 mm^3", "value": "complete regression"},
      {"measurement": "NFκB p65 and p50 activity", "setting": "NFκB p65 and p50", "value": "significantly inhibits"}
    ]}
  ]
}
